# Results published in patent US20220168430A1, “THERAPEUTIC METHODS FOR TREATING HEPATITIS B” (priority 2019, published 2022).
# Like-named read-outs stand apart in the source and are kept apart here.
# System: HBV rcDNA
# Assay: Dual agent combination in HepDE19 cells, rcDNA by Quantigene 2.0 bDNA assay (Examples 5-8)
# Format: cell-based, HBV; HepDE19 (HepG2 human hepatocarcinoma derived)
# Conditions: Hepatitis B virus; for inhibition at 0.005 µM: Compound 1 0.005 μM alone; for inhibition at 0.01 µM: Compound 1 0.010 μM alone; for inhibition at 0.02 µM: Compound 1 0.020 μM alone; for inhibition at 0.039 µM: Compound 1 0.039 μM alone; for inhibition at 0.156 µM: Compound 1 0.156 μM alone
# Experimental: In vitro dual agent combination studies were conducted using the method of Prichard and Shipman 1990 (Prichard M N, Shipman C, Jr. 1990. Antiviral Res 14:181-205). The HepDE19 cell culture system is a HepG2 (human hepatocarcinoma) derived cell line that supports HBV DNA replication and cccDNA formation under control the control of a CMV Tet-off promoter system (Guo et al. 2007. J Virol 81:12472-84). HepDE19 (50,000 cells/well) were plated in 96 well collagen-coated tissue-culture treated microtiter plates in DMEM/F12 medium supplemented with 10% fetal bovine serum+1% penicillin-streptomycin with tetracycline (1 μg/mL) and incubated in a humidified incubator at 37° C. and 5% CO2 overnight. Next day, the cells were switched to fresh medium without tetracycline and incubated for 4 hrs at 37° C. and 5% CO2. The cells were switched to fresh medium and treated with inhibitor A and inhibitor B, at concentration range spanning their respective EC50 values. […] The two inhibitors were tested both singly as well as in combinations in a checkerboard fashion such that each concentration of inhibitor A was combined with each concentration of inhibitor B to determine their combination effects on inhibition of rcDNA production. There were four replicates of each concentration combination in each experiment. The plates were incubated for 7 days in a humidified incubator at 37° C. and 5% CO2. The level of rcDNA present in the wells was measured using a Quantigene 2.0 bDNA assay kit (Affymetrix, Santa Clara, Calif.) with HBV specific custom probe set (genotype D ayw) and according to the manufacturer's instructions and read using a luminescence plate reader and the relative luminescence units (RLU) data generated from each well was calculated as % inhibition of the untreated control wells and analyzed using the MacSynergy II program to determine whether the combinations were synergistic, additive or antagonistic using the interpretive guidelines established by Prichard and Shipman (Prichard M N, Shipman C, Jr. 1990. […] Each experiment was repeated at least three times and the averages and standard deviations of individual determinations was calculated to derive the conclusion. Concurrently, in each experiment, the effect of inhibitor combinations on cell viability was assessed using replicate plates in triplicates that were used to determine the ATP content as a measure of cell viability using the Cell-Titer Glo reagent (Promega, Madison, Wis.) as per the manufacturer's instructions.
# [1] = HepDE19, Expt 2, read-out: AVERAGE % INHIBITION
# [2] = HepDE19, Expt 3 (with ETV), read-out: ADDITIVE INHIBITION
# [3] = HepDE19, Expt 3 (with ETV), read-out: AVERAGE % INHIBITION
# [4] = HepDE19, Expt 3 (with TDF), read-out: ADDITIVE INHIBITION
# [5] = HepDE19, Expt 3 (with TDF), read-out: AVERAGE % INHIBITION
smiles,measurement,setting,value
Cn1cnc(COC(=O)N[C@H]2CCc3c(C(=O)Nc4ccc(F)c(Cl)c4)ccc(F)c32)n1 [Compound 1],inhibition at 0.005 µM,[1],7.51%
same,inhibition at 0.01 µM,[1],26.3%
same,inhibition at 0.02 µM,[1],40.8%
same,inhibition at 0.039 µM,[1],39.8%
same,inhibition at 0.156 µM,[1],87.4%
same,inhibition at 1.25 µM,"HepDE19, Expt 2, Compound 1 1.250 μM alone, read-out: AVERAGE % INHIBITION",98.4%
same,inhibition at 0.005 µM,[2],-5.5%
same,inhibition at 0.005 µM,[3],-5.5%
same,inhibition at 0.01 µM,[2],6.89%
same,inhibition at 0.01 µM,[3],6.89%
same,inhibition at 0.02 µM,[2],14.2%
same,inhibition at 0.02 µM,[3],14.2%
same,inhibition at 0.039 µM,[2],43.7%
same,inhibition at 0.039 µM,[3],43.7%
same,inhibition at 0.156 µM,[2],80.6%
same,inhibition at 0.156 µM,[3],80.6%
same,inhibition at 1.25 µM,"HepDE19, Expt 3 (with ETV), Compound 1 1.25 μM alone, read-out: ADDITIVE INHIBITION",98.1%
same,inhibition at 1.25 µM,"HepDE19, Expt 3 (with ETV), Compound 1 1.25 μM alone, read-out: AVERAGE % INHIBITION",98.1%
same,inhibition at 0.005 µM,[4],18.8%
same,inhibition at 0.005 µM,[5],18.8%
same,inhibition at 0.01 µM,[4],27.3%
same,inhibition at 0.01 µM,[5],27.3%
same,inhibition at 0.02 µM,[4],44.5%
same,inhibition at 0.02 µM,[5],44.5%
same,inhibition at 0.039 µM,[4],66.8%
same,inhibition at 0.039 µM,[5],66.8%
same,inhibition at 0.156 µM,[4],83.6%
same,inhibition at 0.156 µM,[5],83.6%
same,inhibition at 1.25 µM,"HepDE19, Expt 3 (with TDF), Compound 1 1.250 μM alone, read-out: ADDITIVE INHIBITION",98.8%
same,inhibition at 1.25 µM,"HepDE19, Expt 3 (with TDF), Compound 1 1.250 μM alone, read-out: AVERAGE % INHIBITION",98.8%
same,inhibition at 0.007 µM,"HepDE19, Expt 3, Cmpd 1 0.007 μM alone, read-out: AVERAGE % INHIBITION",6.78%
same,inhibition at 0.067 µM,"HepDE19, Expt 3, Cmpd 1 0.067 μM alone",64.7%
same,inhibition at 0.2 µM,"HepDE19, Expt 3, Cmpd 1 0.200 μM alone",92.7%
same,inhibition at 0.6 µM,"HepDE19, Expt 3, Cmpd 1 0.600 μM alone",97.4%
same,inhibition at 0.007 µM,"HepDE19, Expt 3, Compound 1 0.007 μM alone, read-out: AVERAGE % INHIBITION",-51.7%
same,inhibition at 0.067 µM,"HepDE19, Expt 3, Compound 1 0.067 μM alone",51.8%
same,inhibition at 0.2 µM,"HepDE19, Expt 3, Compound 1 0.200 μM alone",85.5%
same,inhibition at 0.6 µM,"HepDE19, Expt 3, Compound 1 0.600 μM alone",94.6%
same,inhibition at 0.007 µM,"HepDE19, Expt 4, Compound 1 0.007 μM alone, read-out: AVERAGE % INHIBITION",11.7%
same,inhibition at 0.067 µM,"HepDE19, Expt 4, Compound 1 0.067 μM alone",52.8%
same,inhibition at 0.2 µM,"HepDE19, Expt 4, Compound 1 0.200 μM alone",90%
same,inhibition at 0.6 µM,"HepDE19, Expt 4, Compound 1 0.600 μM alone",96.4%
